Data reported in US6838468B2, “4-(phenyl-piperdin-4-ylidene methyl)-benzamide derivatives and their use for the treatment of pain, anxiety or gastrointestinal disorders” (AstraZeneca AB, priority 2001, dated 2005).

Key:
[1] = target: T1, delta receptors, rat brain membranes (Rattus norvegicus, UniProt P33533); test: GTP[γ]35S binding functional assay, rat brain membranes; assay type: biochemical; settings: GTPγ35S binding, maximal stimulated binding with 3 μM SNC-80
T1 construct: Rat brain membranes are thawed at 37° C; from tissue; host or cells: rat brain membranes
T1 sequence (P33533 whole entry): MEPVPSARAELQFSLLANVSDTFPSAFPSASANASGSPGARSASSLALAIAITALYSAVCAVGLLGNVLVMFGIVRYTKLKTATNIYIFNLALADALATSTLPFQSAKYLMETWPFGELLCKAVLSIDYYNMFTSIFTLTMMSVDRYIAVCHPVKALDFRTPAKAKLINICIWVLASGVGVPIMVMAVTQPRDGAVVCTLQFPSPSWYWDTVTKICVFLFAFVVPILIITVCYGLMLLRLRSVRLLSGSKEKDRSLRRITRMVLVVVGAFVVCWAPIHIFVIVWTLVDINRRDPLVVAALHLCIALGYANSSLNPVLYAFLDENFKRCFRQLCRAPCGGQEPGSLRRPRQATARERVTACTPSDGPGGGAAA
Description: (§1) • A. Human 293S cells expressing cloned human μ, δ, and κ receptors and neomycin resistance were grown in suspension at 37° C. and 5% CO2 in shaker flasks containing calcium-free DMEM10% FBS, 5% BCS, 0.1% Pluronic F-68, and 600 μg/ml geneticin. • B. Mouse and rat brains were weighed and rinsed in ice-cold PBS (containing 2.5 mM EDTA, pH 7.4). The brains were homogenized with a polytron for 15 sec (mouse) or 30 sec (rat) in ice-cold lysis buffer (50 mM Tris, pH 7.0, 2.5 mM EDTA, with phenylmethylsulfonyl fluoride added just prior use to […] from a 0.5M stock in DMSO:ethanol). Membrane Preparation
(§2) The agonist activity of the compounds is measured by determining the degree to which the compounds receptor complex activates the binding of GTP to G-proteins to which the receptors are coupled. In the GTP binding assay, GTP[γ]^35S is combined with test compounds and membranes from HEK-293S cells expressing the cloned human opioid receptors or from homogenised rat and mouse brain. Agonists stimulate GTP[γ]^35S binding in these membranes. The EC50 and Emax values of compounds are determined from dose-response curves. Right shifts of the dose response curve by the delta antagonist naltrindole are performed to verify that agonist activity is mediated through delta receptors.
Rat brain membranes are thawed at 37° C., passed 3 times through a 25-gauge blunt-end needle and diluted in the GTPγS binding (50 mM Hepes, 20 mM NaOH, 100 mM NaCl, 1 mM EDTA, 5 mM MgCl2, pH 7.4, Add fresh: 1 mM DTT, 0.1% BSA). 120 μM GDP final is added membranes dilutions. […] The basal and maximal stimulated binding are determined in absence and presence of 3 μM SNC-80

[2] = target: T2, delta receptors, mouse brain membranes (Mus musculus, UniProt P32300); test: GTP[γ]35S binding functional assay, mouse brain membranes; assay type: biochemical
T2 construct: from tissue; host or cells: mouse brain membranes
T2 sequence (P32300 whole entry): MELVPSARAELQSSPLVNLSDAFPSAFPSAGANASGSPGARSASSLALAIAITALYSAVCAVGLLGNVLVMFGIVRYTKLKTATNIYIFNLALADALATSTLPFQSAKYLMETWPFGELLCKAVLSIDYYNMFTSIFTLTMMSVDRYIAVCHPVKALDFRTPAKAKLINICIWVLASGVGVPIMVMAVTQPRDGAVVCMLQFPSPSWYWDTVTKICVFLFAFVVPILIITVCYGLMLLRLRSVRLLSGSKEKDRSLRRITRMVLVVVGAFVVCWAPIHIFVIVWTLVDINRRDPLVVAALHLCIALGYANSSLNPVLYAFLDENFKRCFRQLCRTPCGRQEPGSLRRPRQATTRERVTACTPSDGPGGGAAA
Description: as §1, §2

cloned human δ receptor [3] = target: T3, cloned human δ receptor (Homo sapiens, UniProt P41143); test: GTP[γ]35S binding functional assay, HEK-293S membranes expressing cloned human δ receptor (HDELTA); assay type: biochemical
T3 construct: expressed in transfected cells; host or cells: human 293S (HEK-293S) cells, geneticin-selected
T3 sequence (P41143 whole entry): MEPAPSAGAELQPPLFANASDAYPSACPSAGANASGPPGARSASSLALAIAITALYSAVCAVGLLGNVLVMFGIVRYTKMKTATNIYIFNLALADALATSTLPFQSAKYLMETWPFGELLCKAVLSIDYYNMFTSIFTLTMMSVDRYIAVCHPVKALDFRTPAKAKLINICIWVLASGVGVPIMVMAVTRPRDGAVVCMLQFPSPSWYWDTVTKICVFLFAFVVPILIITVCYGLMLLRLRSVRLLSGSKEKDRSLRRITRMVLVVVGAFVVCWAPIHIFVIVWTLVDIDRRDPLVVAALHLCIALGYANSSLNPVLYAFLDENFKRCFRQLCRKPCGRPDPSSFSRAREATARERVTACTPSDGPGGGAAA
Description: as §1
Cells were pelleted and resuspended in lysis buffer (50 mM Tris, pH 7.0, 2.5 mM EDTA, with PMSF added just prior to use to 0.1 mM from a 0.1 M stock in ethanol), incubated on ice for 15 min, then homogenized with a polytron for 30 sec. The suspension was spun at 1000 g (max) for 10 min at 4° C. The supernatant was saved on ice and the pellets resuspended and spun as before. The supernatants from both spins were combined and spun at 46,000 g(max) for 30 min. The pellets were resuspended in cold Tris buffer (50 mM Tris/Cl, pH 7.0) and spun again. The final pellets were resuspended in membrane buffer (50 mM Tris, 0.32 M sucrose, pH 7.0). Aliquots (1 ml) in polypropylene tubes were frozen in dry ice/ethanol and stored at −70° C. until use. The protein concentrations were determined by a modified Lowry assay with sodium dodecyl sulfate.
as §2

cloned human δ receptor [4] = target: T3, cloned human δ receptor; test: Binding assay, membranes of human 293S cells expressing cloned human δ receptor (HDELTA); settings: radioligand displacement

CC(C)N(C(=O)c1ccc(C(=C2CCN(Cc3ccc(Br)cc3)CC2)c2cccc3cccnc23)cc1)C(C)C [Example 11]
Emax [1]: 97 to 144% | Emax [2]: 100 to 151% | Emax (cloned human δ receptor [3]): 96 to 102% | IC50 (cloned human δ receptor [4]): 0.78 to 5 nM

COc1ccc(CN2CCC(=C(c3ccc(C(=O)N(C(C)C)C(C)C)cc3)c3cccc4cccnc34)CC2)cc1 [Example 8, N,N-Diisopropyl-4-{1-[1-(4-methoxy-benzyl)-piperidin-4-ylidene]-1-quinolin-8-yl-methyl}-benzamide]
Emax [1]: 97 to 144% | Emax [2]: 100 to 151% | Emax (cloned human δ receptor [3]): 96 to 102% | IC50 (cloned human δ receptor [4]): 0.78 to 5 nM

CC(C)N(C(=O)c1ccc(C(=C2CCN(Cc3ccccn3)CC2)c2cccc3cccnc23)cc1)C(C)C [Example 2, N,N-Diisopropyl-4-[1-(1-pyridin-2-ylmethyl-piperidin-4-ylidene)-1-quinolin-8-yl-methyl]-benzamide]
Emax [1]: 97 to 144% | Emax [2]: 100 to 151% | Emax (cloned human δ receptor [3]): 96 to 102% | IC50 (cloned human δ receptor [4]): 0.78 to 5 nM

CC(C)N(C(=O)c1ccc(C(=C2CCN(Cc3nccs3)CC2)c2cccc3cccnc23)cc1)C(C)C [Example 9, N,N-Diisopropyl-4-[1-quinolin-8-yl-1-(1-thiazol-2-ylmethyl-piperidin-4-ylidene)-methyl]-benzamide]
Emax [1]: 97 to 144% | Emax [2]: 100 to 151% | Emax (cloned human δ receptor [3]): 96 to 102% | IC50 (cloned human δ receptor [4]): 0.78 to 5 nM

CC(C)N(C(=O)c1ccc(C(=C2CCN(Cc3ccccc3)CC2)c2cccc3cccnc23)cc1)C(C)C [Example 1, 4-[1-(1-Benzyl-piperidin-4-ylidene)-1-quinolin-8-yl-methyl]-N,N-diisopropyl-benzamide]
Emax [1]: 97 to 144% | Emax [2]: 100 to 151% | Emax (cloned human δ receptor [3]): 96 to 102% | IC50 (cloned human δ receptor [4]): 0.78 to 5 nM

CC(C)N(C(=O)c1ccc(C(=C2CCN(Cc3ccoc3)CC2)c2cccc3cccnc23)cc1)C(C)C [Example 6, N,N-Diisopropyl-4-[1-quinolin-8-yl-1-(1-furan-3-ylmethyl-piperidin-4-ylidene)-methyl]-benzamide]
Emax [1]: 97 to 144% | Emax [2]: 100 to 151% | Emax (cloned human δ receptor [3]): 96 to 102% | IC50 (cloned human δ receptor [4]): 0.78 to 5 nM

CC(C)N(C(=O)c1ccc(C(=C2CCN(Cc3ncc[nH]3)CC2)c2cccc3cccnc23)cc1)C(C)C [Example 10, 4-{1-[1-(1H-Imidazol-2-ylmethyl)-piperidin-4-ylidene]-1-quinolin-8-yl-methyl]-N,N-diisopropylbenzamide]
Emax [1]: 97 to 144% | Emax [2]: 100 to 151% | Emax (cloned human δ receptor [3]): 96 to 102% | IC50 (cloned human δ receptor [4]): 0.78 to 5 nM

CC(C)N(C(=O)c1ccc(C(=C2CCN(Cc3ccco3)CC2)c2cccc3cccnc23)cc1)C(C)C [Example 7, N,N-Diisopropyl-4-[1-quinolin-8-yl-1-(1-furan-2-ylmethyl-piperidin-4-ylidene)-methyl]-benzamide]
Emax [1]: 97 to 144% | Emax [2]: 100 to 151% | Emax (cloned human δ receptor [3]): 96 to 102% | IC50 (cloned human δ receptor [4]): 0.78 to 5 nM

CC(C)N(C(=O)c1ccc(C(=C2CCN(Cc3ccncc3)CC2)c2cccc3cccnc23)cc1)C(C)C [Example 3, N,N-Diisopropyl-4-[1-(1-pyridin-4-ylmethyl-piperidin-4-ylidene)-1-quinolin-8-yl-methyl]-benzamide]
Emax [1]: 97 to 144% | Emax [2]: 100 to 151% | Emax (cloned human δ receptor [3]): 96 to 102% | IC50 (cloned human δ receptor [4]): 0.78 to 5 nM

CC(C)N(C(=O)c1ccc(C(=C2CCN(Cc3cccs3)CC2)c2cccc3cccnc23)cc1)C(C)C [Example 4, N,N-Diisopropyl-4-[1-quinolin-8-yl-1-(1-thiophen-2-ylmethyl-piperidin-4-ylidene)-methyl]-benzamide]
Emax [1]: 97 to 144% | Emax [2]: 100 to 151% | Emax (cloned human δ receptor [3]): 96 to 102% | IC50 (cloned human δ receptor [4]): 0.78 to 5 nM
